Laboratory results taken from patent US20230085307A1, “PYRIDAZINONE COMPOUND AND HERBICIDE” (NISSAN CHEMICAL CORPORATION, priority 2019, published 2023).

What was measured:
late watergrass = test: Test Example 1: herbicidal activity, application before weed generation under submerged conditions (Table 16, symbol A); assay type: in vivo, late watergrass (Echinochloa oryzicola); settings: 320 g/ha applied herbicide
Summary of the method: (§1)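 Alluvial soil was flooded to 4 cm depth, weed seeds were sown mixed and 2.5-leaf rice seedlings were transplanted. On sowing day, the compound's emulsion, diluted in water to a set dose, was applied to the water surface. Plants grew at 25–30 °C and were scored 0–5 after three weeks.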

Japanese bulrush = test: Test Example 1: herbicidal activity, application before weed generation under submerged conditions (Table 16, symbol B); assay type: in vivo, Japanese bulrush (Schoenoplectus juncoides); settings: 320 g/ha applied herbicide
Summary of the method: as §1

oval-leafed pondweed = test: Test Example 1: herbicidal activity, application before weed generation under submerged conditions (Table 16, symbol C); assay type: in vivo, oval-leafed pondweed (Monochoria vaginalis); settings: 320 g/ha applied herbicide
Summary of the method: as §1

barnyard grass [1] = test: Test Example 3: herbicidal effect by foliage application, Wagner pot (Table 18, symbol H); assay type: in vivo, barnyard grass (Echinochloa crus-galli); settings: 320 g/ha
Summary of the method: (§2)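 Plants were sown in alluvial soil held under 0.1–0.5 cm standing water and grown 14 days in a greenhouse at 25–30 °C. An emulsifiable formulation, water-diluted to the set dose, was then sprayed onto the foliage, and effects were scored three weeks later using previously defined criteria.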

Chinese sprangletop = test: Test Example 3: herbicidal effect by foliage application, Wagner pot (Table 18, symbol D); assay type: in vivo, chinese sprangletop (Leptochloa chinensis); settings: 320 g/ha
Summary of the method: as §2

rice flat sedge = test: Test Example 3: herbicidal effect by foliage application, Wagner pot (Table 18, symbol E); assay type: in vivo, rice flat sedge (Cyperus iria); settings: 320 g/ha
Summary of the method: as §2

southern crabgrass [2] = test: Test Example 4: herbicidal effect by soil treatment (Table 19, symbol F); assay type: in vivo, southern crabgrass (Digitaria ciliaris); settings: 320 g/ha
Summary of the method: (§3)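 Scoring uses the grading scale of an earlier test, three weeks post-application. Treatment consists of spraying a diluted emulsion formulation across the surface of sterilized diluvial soil in which seeds are buried near 1.5 cm deep; boxes are kept in a greenhouse between 25° C. and 30° C.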

green foxtail [3] = test: Test Example 4: herbicidal effect by soil treatment (Table 19, symbol G); assay type: in vivo, green foxtail (Setaria viridis); settings: 320 g/ha
Summary of the method: as §3

barnyard grass [4] = test: Test Example 4: herbicidal effect by soil treatment (Table 19, symbol H); assay type: in vivo, barnyard grass (Echinochloa crus-galli); settings: 320 g/ha
Summary of the method: as §3

wild oat [5] = test: Test Example 4: herbicidal effect by soil treatment (Table 19, symbol I); assay type: in vivo, wild oat (Avena fatua); settings: 320 g/ha
Summary of the method: as §3

blackgrass [6] = test: Test Example 4: herbicidal effect by soil treatment (Table 19, symbol J); assay type: in vivo, blackgrass (Alopecurus myosuroides); settings: 320 g/ha
Summary of the method: as §3

Italian ryegrass [7] = test: Test Example 4: herbicidal effect by soil treatment (Table 19, symbol K); assay type: in vivo, Italian ryegrass (Lolium multiflorum); settings: 320 g/ha
Summary of the method: as §3

windgrass [8] = test: Test Example 4: herbicidal effect by soil treatment (Table 19, symbol L); assay type: in vivo, windgrass (Apera spica-venti); settings: 320 g/ha
Summary of the method: as §3

velvetleaf [9] = test: Test Example 4: herbicidal effect by soil treatment (Table 19, symbol M); assay type: in vivo, velvetleaf (Abutilon theophrasti); settings: 320 g/ha
Summary of the method: as §3

redroot pigweed [10] = test: Test Example 4: herbicidal effect by soil treatment (Table 19, symbol N); assay type: in vivo, redroot pigweed (Amaranthus retroflexus); settings: 320 g/ha
Summary of the method: as §3

lambsquarters [11] = test: Test Example 4: herbicidal effect by soil treatment (Table 19, symbol O); assay type: in vivo, lambsquarters (Chenopodium album); settings: 320 g/ha
Summary of the method: as §3

chickweed [12] = test: Test Example 4: herbicidal effect by soil treatment (Table 19, symbol P); assay type: in vivo, common chickweed (Stellaria media); settings: 320 g/ha
Summary of the method: as §3

southern crabgrass [13] = test: Test Example 5: herbicidal effect by foliage application, plastic box (Table 20, symbol F); assay type: in vivo, southern crabgrass (Digitaria ciliaris); settings: foliage application, 320 g/ha, evaluated three weeks after application
Summary of the method: (§4)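 Post-emergence foliar test in sterilized diluvial soil. Compound applied as water-diluted emulsion at a predetermined rate to 14-day-old plants; evaluation at three weeks.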

green foxtail [14] = test: Test Example 5: herbicidal effect by foliage application, plastic box (Table 20, symbol G); assay type: in vivo, green foxtail (Setaria viridis); settings: foliage application, 320 g/ha, evaluated three weeks after application
Summary of the method: as §4

barnyard grass [15] = test: Test Example 5: herbicidal effect by foliage application, plastic box (Table 20, symbol H); assay type: in vivo, barnyard grass (Echinochloa crus-galli); settings: foliage application, 320 g/ha, evaluated three weeks after application
Summary of the method: as §4

wild oat [16] = test: Test Example 5: herbicidal effect by foliage application, plastic box (Table 20, symbol I); assay type: in vivo, wild oat (Avena fatua); settings: foliage application, 320 g/ha, evaluated three weeks after application
Summary of the method: as §4

blackgrass [17] = test: Test Example 5: herbicidal effect by foliage application, plastic box (Table 20, symbol J); assay type: in vivo, blackgrass (Alopecurus myosuroides); settings: foliage application, 320 g/ha, evaluated three weeks after application
Summary of the method: as §4

Italian ryegrass [18] = test: Test Example 5: herbicidal effect by foliage application, plastic box (Table 20, symbol K); assay type: in vivo, Italian ryegrass (Lolium multiflorum); settings: foliage application, 320 g/ha, evaluated three weeks after application
Summary of the method: as §4

windgrass [19] = test: Test Example 5: herbicidal effect by foliage application, plastic box (Table 20, symbol L); assay type: in vivo, windgrass (Apera spica-venti); settings: foliage application, 320 g/ha, evaluated three weeks after application
Summary of the method: as §4

velvetleaf [20] = test: Test Example 5: herbicidal effect by foliage application, plastic box (Table 20, symbol M); assay type: in vivo, velvetleaf (Abutilon theophrasti); settings: foliage application, 320 g/ha, evaluated three weeks after application
Summary of the method: as §4

redroot pigweed [21] = test: Test Example 5: herbicidal effect by foliage application, plastic box (Table 20, symbol N); assay type: in vivo, redroot pigweed (Amaranthus retroflexus); settings: foliage application, 320 g/ha, evaluated three weeks after application
Summary of the method: as §4

lambsquarters [22] = test: Test Example 5: herbicidal effect by foliage application, plastic box (Table 20, symbol O); assay type: in vivo, lambsquarters (Chenopodium album); settings: foliage application, 320 g/ha, evaluated three weeks after application
Summary of the method: as §4

chickweed [23] = test: Test Example 5: herbicidal effect by foliage application, plastic box (Table 20, symbol P); assay type: in vivo, common chickweed (Stellaria media); settings: foliage application, 320 g/ha, evaluated three weeks after application
Summary of the method: as §4

persian speedwell = test: Test Example 5: herbicidal effect by foliage application, plastic box (Table 20, symbol R); assay type: in vivo, Persian speedwell (Veronica persica); settings: foliage application, 320 g/ha, evaluated three weeks after application
Summary of the method: as §4

**Q.** With `Cc1nn(C)c(=O)c(-c2c(-c3ccc(OS(=O)(=O)C(F)(F)F)cc3)sc3ccc(F)cc23)c1O` [2-075] as the compound, how does the “Herbicidal effect on A: late watergrass (grade 0-5)” value (late watergrass) read?
**A.** 2 (Herbicidal rate of 20% or more and less than 40%)

**Q.** What about the “Herbicidal effect on B: Japanese bulrush (grade 0-5)” value (Japanese bulrush) of the same compound?
**A.** 2 (Herbicidal rate of 20% or more and less than 40%)

**Q.** And the “Herbicidal effect on C: oval-leafed pondweed (grade 0-5)” value (oval-leafed pondweed)?
**A.** 0 (Herbicidal rate of 5% or less (almost no effect))

**Q.** What about the “herbicidal effect on H (barnyard grass), rating 0-5” value (barnyard grass [1]) of the same compound?
**A.** 2 (Herbicidal rate of 20% or more and less than 40%)

**Q.** What about the “herbicidal effect on D (Chinese sprangletop), rating 0-5” value (Chinese sprangletop) of the same compound?
**A.** 2 (Herbicidal rate of 20% or more and less than 40%)

**Q.** And the “herbicidal effect on E (rice flat sedge), rating 0-5” value (rice flat sedge)?
**A.** 4 (Herbicidal rate of 70% or more and less than 90%)

**Q.** What about the “herbicidal effect rating, F: southern crabgrass” value (southern crabgrass [2]) of the same compound?
**A.** 0 (Herbicidal rate of 5% or less (almost no effect))

**Q.** And the “herbicidal effect rating, G: green foxtail” value (green foxtail [3])?
**A.** 0 (Herbicidal rate of 5% or less (almost no effect))

**Q.** What about the “herbicidal effect rating, H: barnyard grass” value (barnyard grass [4]) of the same compound?
**A.** 0 (Herbicidal rate of 5% or less (almost no effect))

**Q.** What about the “herbicidal effect rating, I: wild oat” value (wild oat [5]) of the same compound?
**A.** 0 (Herbicidal rate of 5% or less (almost no effect))

**Q.** What about the “herbicidal effect rating, J: blackgrass” value (blackgrass [6]) of the same compound?
**A.** 0 (Herbicidal rate of 5% or less (almost no effect))

**Q.** What about the “herbicidal effect rating, K: Italian ryegrass” value (Italian ryegrass [7]) of the same compound?
**A.** 0 (Herbicidal rate of 5% or less (almost no effect))

**Q.** What about the “herbicidal effect rating, L: windgrass” value (windgrass [8]) of the same compound?
**A.** 0 (Herbicidal rate of 5% or less (almost no effect))

**Q.** What about the “herbicidal effect rating, M: velvetleaf” value (velvetleaf [9]) of the same compound?
**A.** 0 (Herbicidal rate of 5% or less (almost no effect))

**Q.** What about the “herbicidal effect rating, N: redroot pigweed” value (redroot pigweed [10]) of the same compound?
**A.** 1 (Herbicidal rate of 5% or more and less than 20%)

**Q.** And the “herbicidal effect rating, O: lambsquarters” value (lambsquarters [11])?
**A.** 3 (Herbicidal rate of 40% or more and less than 70%)

**Q.** What about the “herbicidal effect rating, P: chickweed” value (chickweed [12]) of the same compound?
**A.** 0 (Herbicidal rate of 5% or less (almost no effect))

**Q.** And the “herbicidal effect on F: southern crabgrass” value (southern crabgrass [13])?
**A.** 0 (Herbicidal rate of 5% or less (almost no effect))

**Q.** And the “herbicidal effect on G: green foxtail” value (green foxtail [14])?
**A.** 0 (Herbicidal rate of 5% or less (almost no effect))

**Q.** What about the “herbicidal effect on H: barnyard grass” value (barnyard grass [15]) of the same compound?
**A.** 0 (Herbicidal rate of 5% or less (almost no effect))

**Q.** What about the “herbicidal effect on I: wild oat” value (wild oat [16]) of the same compound?
**A.** 0 (Herbicidal rate of 5% or less (almost no effect))

**Q.** And the “herbicidal effect on J: blackgrass” value (blackgrass [17])?
**A.** 0 (Herbicidal rate of 5% or less (almost no effect))

**Q.** And the “herbicidal effect on K: Italian ryegrass” value (Italian ryegrass [18])?
**A.** 0 (Herbicidal rate of 5% or less (almost no effect))

**Q.** What about the “herbicidal effect on L: windgrass” value (windgrass [19]) of the same compound?
**A.** 0 (Herbicidal rate of 5% or less (almost no effect))

**Q.** What about the “herbicidal effect on M: velvetleaf” value (velvetleaf [20]) of the same compound?
**A.** 3 (Herbicidal rate of 40% or more and less than 70%)

**Q.** What about the “herbicidal effect on N: redroot pigweed” value (redroot pigweed [21]) of the same compound?
**A.** 2 (Herbicidal rate of 20% or more and less than 40%)

**Q.** What about the “herbicidal effect on O: lambsquarters” value (lambsquarters [22]) of the same compound?
**A.** 3 (Herbicidal rate of 40% or more and less than 70%)

**Q.** What about the “herbicidal effect on P: chickweed” value (chickweed [23]) of the same compound?
**A.** 3 (Herbicidal rate of 40% or more and less than 70%)

**Q.** What about the “herbicidal effect on R: persian speedwell” value (persian speedwell) of the same compound?
**A.** 5 (Herbicidal rate of 90% or more (almost completely withered))
